Values after ≈ are worked out from the molar mass of the structure shown.
Tested on: not listed separately
Assay: Plasma protein binding in human
Format: ADME, cell-free
Settings: read-out: PPB (converted)

Point of comparison: `Cc1ccc([C@H]2C[C@@H](C(F)(F)F)n3ncc(C(=O)NCc4ccc(F)cn4)c3N2)nc1`, fraction unbound 0.181. Against it:
- O=C(NCc1ccc(F)cc1)c1cnn2c1N[C@@H](c1ccc(N3CCOCC3)cc1)C[C@H]2C(F)(F)F — lower, 0.018
- Cc1ccc([C@H]2C[C@@H](C(F)(F)F)n3ncc(C(=O)NCc4ccc(F)cn4)c3N2)cc1 — lower, 0.01

Tested on: Mycobacterium tuberculosis
Assay: Antitubercular activity against Mycobacterium tuberculosis H37Rv ATCC 27294 […]
Format: functional
Settings: not given

Point of comparison: `Cc1ccc([C@H]2C[C@@H](C(F)(F)F)n3ncc(C(=O)NCc4ccc(F)cn4)c3N2)nc1`, MIC 52.2 µM (≈ 22.7 µg/mL). Against it:
- O=C(NCc1ccc(F)cc1)c1cnn2c1N[C@@H](c1ccc(N3CCOCC3)cc1)C[C@H]2C(F)(F)F — 60-fold lower, 0.87 µM (≈ 0.438 µg/mL)
- Cc1ccc([C@H]2C[C@@H](C(F)(F)F)n3ncc(C(=O)NCc4ccc(F)cn4)c3N2)cc1 — 63-fold lower, 0.83 µM (≈ 0.36 µg/mL)

Tested on: not listed separately
Assay: Plasma protein binding in mouse
Format: ADME, cell-free
Settings: read-out: PPB (converted)

Point of comparison: `O=C(NCc1ccc(F)cc1)c1cnn2c1N[C@@H](c1ccc(N3CCOCC3)cc1)C[C@H]2C(F)(F)F`, fraction unbound 0.016. Against it:
- Cc1ccc([C@H]2C[C@@H](C(F)(F)F)n3ncc(C(=O)NCc4ccc(F)cn4)c3N2)nc1 — higher, 0.128
- Cc1ccc([C@H]2C[C@@H](C(F)(F)F)n3ncc(C(=O)NCc4ccc(F)cn4)c3N2)cc1 — lower, < 0.01

Tested on: not listed separately
Assay: Octanol-water partition coefficient, log P of the compound
Format: physicochemical
Settings: not given

Point of comparison: `O=C(NCc1ccc(F)cc1)c1cnn2c1N[C@@H](c1ccc(N3CCOCC3)cc1)C[C@H]2C(F)(F)F`, logP 4.8. Against it:
- Cc1ccc([C@H]2C[C@@H](C(F)(F)F)n3ncc(C(=O)NCc4ccc(F)cn4)c3N2)nc1 — lower, 3.2
- Cc1ccc([C@H]2C[C@@H](C(F)(F)F)n3ncc(C(=O)NCc4ccc(F)cn4)c3N2)cc1 — within 0.2 log units, 4.9

Tested on: not listed separately
Assay: Aqueous solubility of the compound at pH 6.8
Format: physicochemical
Settings: not given

Point of comparison: `Cc1ccc([C@H]2C[C@@H](C(F)(F)F)n3ncc(C(=O)NCc4ccc(F)cn4)c3N2)nc1`, solubility 347 µM (≈ 151 µg/mL). Against it:
- O=C(NCc1ccc(F)cc1)c1cnn2c1N[C@@H](c1ccc(N3CCOCC3)cc1)C[C@H]2C(F)(F)F — lower, < 4 µM
- Cc1ccc([C@H]2C[C@@H](C(F)(F)F)n3ncc(C(=O)NCc4ccc(F)cn4)c3N2)cc1 — lower, < 4 µM
